According to PubChem BioAssay AID686975 (The Scripps Research Institute Molecular Screening Center, 2013):
Values belong to the compound of their own block, whether it stands above or below them. Active and inactive are the calls of the source. No rule for the calls is given here.

Experiments:
HSP70 = test: Hsp70 and Hsp90 expression induction, late-stage follow-up, cell-based, Western blot, chemiluminescence (AID 686975); conditions: cells, stronger effect = higher value
[1] = molecular target: Heat shock protein HSP 90-alpha (Homo sapiens) (UniProt P07900); test: as above; conditions: cells, stronger effect = higher value

Compound: CCOc1ccc(-c2nc(CN3CCCCC3CCn3cccn3)c(C)o2)cc1 (configuration not stated)
- up-regulation (HSP70; high dose (five times the IC50) 111 µM, low dose (half the IC50) 11.1 µM): < 10%
- up-regulation ([1]; HSP90, high dose (five times the IC50) 111 µM, low dose (half the IC50) 11.1 µM): < 10%

Compound: O=C(NCCc1ccc(F)cc1)c1coc(=O)c(Br)c1
- up-regulation (HSP70; high dose (five times the IC50) 10.5 µM, low dose (half the IC50) 1.1 µM): < 10%
- up-regulation ([1]; HSP90, high dose (five times the IC50) 10.5 µM, low dose (half the IC50) 1.1 µM): < 10%

Compound: CC(C)CNC(=O)c1coc(=O)c(Br)c1
- up-regulation (HSP70; high dose (five times the IC50) 37.5 µM, low dose (half the IC50) 3.8 µM): < 10%
- up-regulation ([1]; HSP90, high dose (five times the IC50) 37.5 µM, low dose (half the IC50) 3.8 µM): < 10%

Compound: COc1ccc(NC(=O)c2ccc(NC(=O)c3coc(=O)c(Br)c3)cc2)cc1
- up-regulation (HSP70; high dose (five times the IC50) 60.5 µM, low dose (half the IC50) 6.1 µM): < 10%
- up-regulation ([1]; HSP90, high dose (five times the IC50) 60.5 µM, low dose (half the IC50) 6.1 µM): < 10%

Compound: COc1ccc(NC(=O)c2coc(=O)c(Br)c2)cc1
- up-regulation (HSP70; high dose (five times the IC50) 12 µM, low dose (half the IC50) 1.2 µM): < 10%
- up-regulation ([1]; HSP90, high dose (five times the IC50) 12 µM, low dose (half the IC50) 1.2 µM): < 10%

Compound: CC(=O)c1ccc(NC(=O)c2coc(=O)c(Br)c2)cc1
- up-regulation (HSP70; high dose (five times the IC50) 53.5 µM, low dose (half the IC50) 5.4 µM): < 10%
- up-regulation ([1]; HSP90, high dose (five times the IC50) 53.5 µM, low dose (half the IC50) 5.4 µM): < 10%

Compound: Cc1cc(NC(=O)c2coc(=O)c(Br)c2)ccc1C(C)C
- up-regulation (HSP70; high dose (five times the IC50) 44.5 µM, low dose (half the IC50) 4.5 µM): < 10%
- up-regulation ([1]; HSP90, high dose (five times the IC50) 44.5 µM, low dose (half the IC50) 4.5 µM): < 10%

Compound: Cc1cccc(NC(=O)c2coc(=O)c(Br)c2)n1
- up-regulation (HSP70; high dose (five times the IC50) 136.5 µM, low dose (half the IC50) 13.7 µM): < 10%
- up-regulation ([1]; HSP90, high dose (five times the IC50) 136.5 µM, low dose (half the IC50) 13.7 µM): < 50% (inactive)

The next lines start with results.

- up-regulation ([1]; HSP90, high dose (five times the IC50) 246 µM, low dose (half the IC50) 24.6 µM): < 10%
Compound: COC(=O)c1ccc2nc(NC(=O)C3CC3)sc2c1
- up-regulation (HSP70; high dose (five times the IC50) 246 µM, low dose (half the IC50) 24.6 µM): < 10%

- up-regulation ([1]; HSP90, high dose (five times the IC50) 24 µM, low dose (half the IC50) 2.4 µM): < 10%
Compound: O=C(NCc1ccco1)c1coc(=O)c(Br)c1
- up-regulation (HSP70; high dose (five times the IC50) 24 µM, low dose (half the IC50) 2.4 µM): < 10%

- up-regulation ([1]; HSP90, high dose (five times the IC50) 17.5 µM, low dose (half the IC50) 1.8 µM): < 10%
Compound: O=C(NCc1cccnc1)c1coc(=O)c(Br)c1
- up-regulation (HSP70; high dose (five times the IC50) 17.5 µM, low dose (half the IC50) 1.8 µM): < 10%

- up-regulation ([1]; HSP90, high dose (five times the IC50) 114 µM, low dose (half the IC50) 11.4 µM): < 50% (inactive)
Compound: CCCCOc1cccc(NC(=O)c2coc(=O)c(Br)c2)c1
- up-regulation (HSP70; high dose (five times the IC50) 114 µM, low dose (half the IC50) 11.4 µM): < 10%

- up-regulation ([1]; HSP90, high dose (five times the IC50) 64.5 µM, low dose (half the IC50) 6.5 µM): < 50% (inactive)
Compound: CCCCCCCCOc1ccc(NC(=O)c2coc(=O)c(Br)c2)cc1
- up-regulation (HSP70; high dose (five times the IC50) 64.5 µM, low dose (half the IC50) 6.5 µM): < 10%

- up-regulation ([1]; HSP90, high dose (five times the IC50) 9 µM, low dose (half the IC50) 0.9 µM): < 10%
Compound: CC(NC(=O)c1coc(=O)c(Br)c1)C1C2CCC3CC(C2)CC31 (configuration not stated)
- up-regulation (HSP70; high dose (five times the IC50) 9 µM, low dose (half the IC50) 0.9 µM): < 10%

- up-regulation ([1]; HSP90, high dose (five times the IC50) 147 µM, low dose (half the IC50) 14.7 µM): < 10%
Compound: O=C(Nc1ccccc1I)c1coc(=O)c(Br)c1
- up-regulation (HSP70; high dose (five times the IC50) 147 µM, low dose (half the IC50) 14.7 µM): < 10%

- up-regulation ([1]; HSP90, high dose (five times the IC50) 17 µM, low dose (half the IC50) 1.7 µM): < 10%
Compound: O=C(Nc1ccc(F)cc1)c1coc(=O)c(Br)c1
- up-regulation (HSP70; high dose (five times the IC50) 17 µM, low dose (half the IC50) 1.7 µM): < 10%
